Source: US6156700A, “3-(1,2-Benzisothiazol- and isoxazol-5-yl)-2,4(1H,3H)-pyrimidinedione or thione and 3-(1,2-benzisothiazol- and isoxazol-5-yl)-4(3H)-pyrimidinone or thione herbicidal agents” (American Cyanmid Company, priority 1998, dated 2000)

Columns and labels:
[1] = system: Ragweed, Common, Ambrosia artemisifolia; assay: Postemergence herbicidal evaluation, AMBEL; type: in vivo, L.; conditions: 0.2500 kg/ha
Outline: (§1)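 Visual 0–9 scoring against untreated control, made four to five weeks post-spray and averaged over repeat tests, covers stand, vigor, malformation, size and chlorosis. Treatment: foliar spray at 40 psi onto ~2-week seedlings, about 0.0157–0.500 kg/ha, compound in 1:1 acetone/water with 0.5% TWEEN 20.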

[2] = system: Lambsquarters, Common, Chenopodium album; assay: Postemergence herbicidal evaluation, CHEAL; type: in vivo, L.; conditions: 0.2500 kg/ha
Outline: as §1

[3] = system: Barnyardgrass, Echinochloa crus-galli; assay: Postemergence herbicidal evaluation, ECHCG; type: in vivo, (L.) Beau; conditions: 0.2500 kg/ha
Outline: as §1

[4] = system: Soybean, Williams, Glycine max; assay: Postemergence herbicidal evaluation, GLXMAW; type: in vivo, (L.) Merr. cv Williams; conditions: 0.2500 kg/ha
Outline: as §1

[5] = system: Rice, Tebonnet, Oryza sativa; assay: Postemergence herbicidal evaluation, ORYSAT; type: in vivo, (L.) Tebonnet; conditions: 0.2500 kg/ha
Outline: as §1

[6] = system: Wheat, Winter, cv Riband, Triticum aestivum; assay: Postemergence herbicidal evaluation, TRZAWR; type: in vivo; conditions: 0.2500 kg/ha
Outline: as §1

[7] = system: Corn, Field, Zea mays; assay: Postemergence herbicidal evaluation, ZEAMX; type: in vivo, L.; conditions: 0.2500 kg/ha
Outline: as §1

[8] = system: Velvetleaf, Abutilon theophrasti; assay: Preemergence herbicidal evaluation, ABUTH; type: in vivo, Medic.; conditions: 0.2500 kg/ha
Outline: (§2)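 Sow seeds in soil-filled cups; spray aqueous acetone compound solution at about 0.0156–0.500 kg/ha; keep on greenhouse benches with routine watering; after four to five weeks, rate visual injury 0–9 compared with control plants.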

[9] = system: Sicklepod, Cassia obtusifolia; assay: Preemergence herbicidal evaluation, CASOB; type: in vivo, L.; conditions: 0.2500 kg/ha
Outline: as §2

[10] = system: Morningglory Spp., Ipomoea Spp.; assay: Preemergence herbicidal evaluation, IPOSS; type: in vivo; conditions: 0.2500 kg/ha
Text: Results of herbicide evaluation are expressed on a rating scale (0-9). The scale is based upon a visual observation of plant stand, vigor, malformation, size, chlorosis and overall plant appearance as compared with a control.
The preemergence herbicidal activity of the test compounds of the present invention is exemplified by the following tests in which the seeds of a variety of monocotyledonous and dicotyledonous plants are separately mixed with potting soil and planted on top of approximately one inch of soil in separate pint cups. After planting, the cups are sprayed with the selected aqueous acetone solution containing test compound in sufficient quantity to provide the equivalent of about 0.0156 to 0.500 kg per hectare of test compound per cup. The treated cups are then placed on greenhouse benches, watered and cared for in accordance with conventional greenhouse procedures. From four to five weeks after treatment, the tests are terminated and each cup is examined and rated according to the rating system provided in Example 185.
The compounds evaluated are reported by compound number given in Example 185.

[11] = system: Barnyardgrass, Echinochloa crus-galli; assay: Preemergence herbicidal evaluation, ECHCG; type: in vivo, (L.) Beau; conditions: 0.2500 kg/ha
Outline: as §2

[12] = system: Foxtail, Green, Setaria viridis; assay: Preemergence herbicidal evaluation, SETVI; type: in vivo, (L.) Beau; conditions: 0.2500 kg/ha
Outline: as §2

[13] = system: Corn, Field, Zea mays; assay: Preemergence herbicidal evaluation, ZEAMX; type: in vivo, L.; conditions: 0.2500 kg/ha
Outline: as §2

[14] = system: ECHORC Watergrass (Calif.); assay: Preemergence weed control, flooded paddy (Table III); type: in vivo, Echinochloa oryzoides; parameters: scale not given here
Method: (§3) Preemergence herbicidal activity under flooded paddy conditions is determined as follows: plant seeds or propagating organs are planted in the top 0.5 cm of silt loam soil in 32 oz. plastic containers with a diameter of 10.5 cm and no drainage holes. Water is added to these containers and maintained at 1.5 to 3 cm above the soil surface for the duration of the experiment. The test compounds are applied as aqueous/acetone mixtures 50/50 v/v pipetted directly into the flood water to give the equivalent of about 0.0313 to 0.500 kg/ha of active ingredient. The treated containers are placed on greenhouse benches and cared for in accordance with conventional greenhouse procedures. Three to four weeks after treatment, the test is terminated and each container is examined and herbicidal effect rated according to the rating system provided in Example 185. The compounds evaluated are reported by compound number given in Example 185.

[15] = system: CYPIR Rice Flatsedge; assay: as above; type: in vivo, Cyperus iria; parameters: scale not given here
Method: as §3

[16] = system: SAGPY Arrowhead (Pygmaea); assay: as above; type: in vivo, Sagittaria pygmaea; parameters: scale not given here
Method: as §3

[17] = system: ECHORC Watergrass (Calif.); assay: Postemergence weed control, flooded paddy (Table IV); type: in vivo, Echinochloa oryzoides; parameters: scale not given here
Outline: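 Rating scale scores taken 3–4 weeks post-treatment; compounds dosed in flood water (~0.0313–0.500 kg/ha) onto weeds 3–5 cm tall and 1.5–2.5 leaf rice under 1.5–3 cm standing water.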

In the case of `Cc1cc(O)c(-c2nsc3ccc(-n4c(=O)cc(C(F)(F)F)n(C)c4=O)cc23)cc1C` [Compound 11, 3-[3-(6-Hydroxy-3,4-xylyl)-1,2-benzisothiazol-5-yl]-1-methyl-6-(trifluoromethyl)-2,4(1H,3H)-pyrimidinedione], the “herbicide rating (0-9)” value [1] is reported as 9.0, the “herbicide rating (0-9)” value [2] is reported as 9.0 and the “herbicide rating (0-9)” value [3] is reported as 7.0. For the same molecule, the “herbicide rating (0-9)” value [4] was 6.0, the “herbicide rating (0-9)” value [5] was 2.0 and the “herbicide rating (0-9)” value [6] was 5.0. For the same molecule, the “herbicide rating (0-9)” value [7] was 5.5, the “herbicide rating (0-9)” value [8] was 9.0 and the “herbicide rating (0-9)” value [9] was 3.0. The “herbicide rating (0-9)” value [10] was 5.0, the “herbicide rating (0-9)” value [11] was 0.0 and the “herbicide rating (0-9)” value [12] was 9.0. The “herbicide rating (0-9)” value [13] was 5.0, the herbicidal effect rating ([14]; 0.0625 kg/ha) was 7.0 and the herbicidal effect rating ([14]; 0.1250 kg/ha) was 8.0. For the same molecule, the herbicidal effect rating ([14]; 0.2500 kg/ha) was 8.0, the herbicidal effect rating ([14]; 0.5000 kg/ha) was 9.0 and the herbicidal effect rating ([15]; 0.0625 kg/ha) was 9.0. For the same molecule, the herbicidal effect rating ([15]; 0.1250 kg/ha) was 9.0, the herbicidal effect rating ([15]; 0.2500 kg/ha) was 9.0 and the herbicidal effect rating ([15]; 0.5000 kg/ha) was 9.0. It also gave a herbicidal effect rating ([16]; 0.0625 kg/ha) of 0.0, a herbicidal effect rating ([16]; 0.1250 kg/ha) of 0.0 and a herbicidal effect rating ([16]; 0.2500 kg/ha) of 2.0. It also gave a herbicidal effect rating ([16]; 0.5000 kg/ha) of 9.0, a herbicidal effect rating ([17]; 0.1250 kg/ha) of 2.0 and a herbicidal effect rating ([17]; 0.2500 kg/ha) of 4.0. For the same molecule, the herbicidal effect rating ([17]; 0.5000 kg/ha) was 7.0.
In the case of `COC(=O)COc1cc(C)c(C)cc1-c1nsc2ccc(-n3c(=O)cc(C(F)(F)F)n(C)c3=O)cc12` [Compound 12, Methyl {{6-{5-[3,6-dihydro-3-methyl-4-(trifluoromethyl)-2,6-dioxo-1(2H)-pyrimidinyl]-1,2-benzisothiazol-3-yl}-3,4-xylyl}oxy}acetate], the “herbicide rating (0-9)” value [1] is reported as 9.0, the “herbicide rating (0-9)” value [2] is reported as 9.0 and the “herbicide rating (0-9)” value [3] is reported as 9.0. For the same molecule, the “herbicide rating (0-9)” value [4] was 9.0, the “herbicide rating (0-9)” value [5] was 9.0 and the “herbicide rating (0-9)” value [6] was 9.0. For the same molecule, the “herbicide rating (0-9)” value [7] was 9.0, the “herbicide rating (0-9)” value [8] was 9.0 and the “herbicide rating (0-9)” value [9] was 9.0. The “herbicide rating (0-9)” value [10] was 9.0, the “herbicide rating (0-9)” value [11] was 6.0 and the “herbicide rating (0-9)” value [12] was 9.0. The “herbicide rating (0-9)” value [13] was 7.0, the herbicidal effect rating ([14]; 0.0313 kg/ha) was 9.0 and the herbicidal effect rating ([14]; 0.0625 kg/ha) was 9.0. The herbicidal effect rating ([14]; 0.1250 kg/ha) was 9.0, the herbicidal effect rating ([14]; 0.2500 kg/ha) was 9.0 and the herbicidal effect rating ([14]; 0.5000 kg/ha) was 9.0. It also gave a herbicidal effect rating ([15]; 0.0313 kg/ha) of 9.0, a herbicidal effect rating ([15]; 0.0625 kg/ha) of 9.0 and a herbicidal effect rating ([15]; 0.1250 kg/ha) of 9.0. The herbicidal effect rating ([15]; 0.2500 kg/ha) was 9.0, the herbicidal effect rating ([15]; 0.5000 kg/ha) was 9.0 and the herbicidal effect rating ([16]; 0.0313 kg/ha) was 0.0. For the same molecule, the herbicidal effect rating ([16]; 0.0625 kg/ha) was 2.0, the herbicidal effect rating ([16]; 0.1250 kg/ha) was 4.0 and the herbicidal effect rating ([16]; 0.2500 kg/ha) was 9.0. The herbicidal effect rating ([16]; 0.5000 kg/ha) was 9.0, the herbicidal effect rating ([17]; 0.1250 kg/ha) was 6.0 and the herbicidal effect rating ([17]; 0.2500 kg/ha) was 9.0. It also gave a herbicidal effect rating ([17]; 0.5000 kg/ha) of 9.0.
`COC(=O)C(C)Oc1cc(C)c(C)cc1-c1nsc2ccc(-n3c(=O)cc(C(F)(F)F)n(C)c3=O)cc12` (stereo not drawn) [Compound 13, Methyl 2-{{6-{5-[3,6-dihydro-3-methyl-4-(trifluoromethyl)-2,6-dioxo-1(2H)-pyrimidinyl]-1,2-benzisothiazol-3-yl}-3,4-xylyl}oxy}propionate] was tested, and the “herbicide rating (0-9)” value [1] was 9.0, the “herbicide rating (0-9)” value [2] was 9.0 and the “herbicide rating (0-9)” value [3] was 9.0. The “herbicide rating (0-9)” value [4] was 8.5, the “herbicide rating (0-9)” value [5] was 8.0 and the “herbicide rating (0-9)” value [6] was 8.5. For the same molecule, the “herbicide rating (0-9)” value [7] was 9.0, the “herbicide rating (0-9)” value [8] was 9.0 and the “herbicide rating (0-9)” value [9] was 9.0. For the same molecule, the “herbicide rating (0-9)” value [10] was 9.0, the “herbicide rating (0-9)” value [11] was 9.0 and the “herbicide rating (0-9)” value [12] was 9.0. For the same molecule, the “herbicide rating (0-9)” value [13] was 4.0, the herbicidal effect rating ([14]; 0.0313 kg/ha) was 9.0 and the herbicidal effect rating ([14]; 0.0625 kg/ha) was 9.0. For the same molecule, the herbicidal effect rating ([14]; 0.1250 kg/ha) was 9.0, the herbicidal effect rating ([14]; 0.2500 kg/ha) was 9.0 and the herbicidal effect rating ([14]; 0.5000 kg/ha) was 9.0. It also gave a herbicidal effect rating ([15]; 0.0313 kg/ha) of 9.0, a herbicidal effect rating ([15]; 0.0625 kg/ha) of 9.0 and a herbicidal effect rating ([15]; 0.1250 kg/ha) of 9.0. For the same molecule, the herbicidal effect rating ([15]; 0.2500 kg/ha) was 9.0, the herbicidal effect rating ([15]; 0.5000 kg/ha) was 9.0 and the herbicidal effect rating ([16]; 0.0313 kg/ha) was 0.0. The herbicidal effect rating ([16]; 0.0625 kg/ha) was 2.0, the herbicidal effect rating ([16]; 0.1250 kg/ha) was 6.0 and the herbicidal effect rating ([16]; 0.2500 kg/ha) was 8.0. The herbicidal effect rating ([16]; 0.5000 kg/ha) was 9.0, the herbicidal effect rating ([17]; 0.1250 kg/ha) was 6.0 and the herbicidal effect rating ([17]; 0.2500 kg/ha) was 8.0. The herbicidal effect rating ([17]; 0.5000 kg/ha) was 9.0.
